Laboratory results taken from ChEMBL document CHEMBL2007661, “Compounds: GSK PKIS; Assays: UNC Frye lab” (2012).
Values joined by “and” are separate entries in the source; they are usually repeats but may differ in a detail not shown here. Equal entries are not always repeated.

Assays:
[1] = biological target: T1, Inhibitor of nuclear factor kappa-B kinase subunit alpha (Homo sapiens) (UniProt O15111); details: at 1 µM
T1 sequence (whole entry): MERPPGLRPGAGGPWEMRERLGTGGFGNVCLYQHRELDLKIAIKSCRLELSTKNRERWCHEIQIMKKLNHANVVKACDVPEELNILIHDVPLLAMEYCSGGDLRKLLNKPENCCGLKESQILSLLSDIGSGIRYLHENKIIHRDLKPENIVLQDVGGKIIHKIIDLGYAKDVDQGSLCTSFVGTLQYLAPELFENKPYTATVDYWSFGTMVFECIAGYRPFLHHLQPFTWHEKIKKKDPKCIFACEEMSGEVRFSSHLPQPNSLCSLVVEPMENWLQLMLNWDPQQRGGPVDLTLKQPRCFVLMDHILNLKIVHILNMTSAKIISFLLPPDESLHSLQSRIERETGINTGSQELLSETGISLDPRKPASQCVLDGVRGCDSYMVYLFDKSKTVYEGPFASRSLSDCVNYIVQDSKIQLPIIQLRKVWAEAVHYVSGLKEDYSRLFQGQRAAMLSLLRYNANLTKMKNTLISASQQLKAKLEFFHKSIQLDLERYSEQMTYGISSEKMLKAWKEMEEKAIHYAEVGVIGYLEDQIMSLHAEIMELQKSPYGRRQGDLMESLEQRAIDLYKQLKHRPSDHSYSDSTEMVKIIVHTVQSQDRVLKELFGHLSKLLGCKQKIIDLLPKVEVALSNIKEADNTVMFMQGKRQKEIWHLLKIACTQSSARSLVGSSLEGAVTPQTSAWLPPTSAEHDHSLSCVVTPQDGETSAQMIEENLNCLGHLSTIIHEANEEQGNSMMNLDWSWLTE

[2] = biological target: T2, Inhibitor of nuclear factor kappa-B kinase subunit beta (Homo sapiens) (UniProt O14920); details: at 1 µM
T2 sequence (whole entry): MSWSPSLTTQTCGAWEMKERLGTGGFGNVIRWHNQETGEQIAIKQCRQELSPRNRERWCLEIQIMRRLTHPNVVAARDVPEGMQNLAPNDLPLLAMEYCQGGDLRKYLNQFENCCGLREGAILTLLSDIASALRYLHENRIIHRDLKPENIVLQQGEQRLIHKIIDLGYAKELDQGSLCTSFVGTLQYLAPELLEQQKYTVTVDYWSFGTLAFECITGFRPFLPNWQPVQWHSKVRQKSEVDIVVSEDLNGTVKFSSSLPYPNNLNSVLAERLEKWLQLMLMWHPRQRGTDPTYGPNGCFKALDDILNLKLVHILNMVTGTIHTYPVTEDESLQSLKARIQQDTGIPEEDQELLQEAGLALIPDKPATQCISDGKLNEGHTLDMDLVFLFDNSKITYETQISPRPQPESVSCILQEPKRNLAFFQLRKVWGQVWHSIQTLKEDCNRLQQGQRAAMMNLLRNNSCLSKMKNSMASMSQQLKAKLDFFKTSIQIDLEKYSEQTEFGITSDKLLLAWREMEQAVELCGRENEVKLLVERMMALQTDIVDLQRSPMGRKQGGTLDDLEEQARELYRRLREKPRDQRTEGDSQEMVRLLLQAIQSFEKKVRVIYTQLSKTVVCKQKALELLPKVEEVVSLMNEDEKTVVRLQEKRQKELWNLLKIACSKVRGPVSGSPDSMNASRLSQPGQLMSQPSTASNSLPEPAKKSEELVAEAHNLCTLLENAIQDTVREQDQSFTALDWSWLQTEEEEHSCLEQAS

[3] = biological target: T3, Tyrosine-protein kinase Mer (Homo sapiens) (UniProt Q12866); details: at 10 µM
T3 sequence (whole entry): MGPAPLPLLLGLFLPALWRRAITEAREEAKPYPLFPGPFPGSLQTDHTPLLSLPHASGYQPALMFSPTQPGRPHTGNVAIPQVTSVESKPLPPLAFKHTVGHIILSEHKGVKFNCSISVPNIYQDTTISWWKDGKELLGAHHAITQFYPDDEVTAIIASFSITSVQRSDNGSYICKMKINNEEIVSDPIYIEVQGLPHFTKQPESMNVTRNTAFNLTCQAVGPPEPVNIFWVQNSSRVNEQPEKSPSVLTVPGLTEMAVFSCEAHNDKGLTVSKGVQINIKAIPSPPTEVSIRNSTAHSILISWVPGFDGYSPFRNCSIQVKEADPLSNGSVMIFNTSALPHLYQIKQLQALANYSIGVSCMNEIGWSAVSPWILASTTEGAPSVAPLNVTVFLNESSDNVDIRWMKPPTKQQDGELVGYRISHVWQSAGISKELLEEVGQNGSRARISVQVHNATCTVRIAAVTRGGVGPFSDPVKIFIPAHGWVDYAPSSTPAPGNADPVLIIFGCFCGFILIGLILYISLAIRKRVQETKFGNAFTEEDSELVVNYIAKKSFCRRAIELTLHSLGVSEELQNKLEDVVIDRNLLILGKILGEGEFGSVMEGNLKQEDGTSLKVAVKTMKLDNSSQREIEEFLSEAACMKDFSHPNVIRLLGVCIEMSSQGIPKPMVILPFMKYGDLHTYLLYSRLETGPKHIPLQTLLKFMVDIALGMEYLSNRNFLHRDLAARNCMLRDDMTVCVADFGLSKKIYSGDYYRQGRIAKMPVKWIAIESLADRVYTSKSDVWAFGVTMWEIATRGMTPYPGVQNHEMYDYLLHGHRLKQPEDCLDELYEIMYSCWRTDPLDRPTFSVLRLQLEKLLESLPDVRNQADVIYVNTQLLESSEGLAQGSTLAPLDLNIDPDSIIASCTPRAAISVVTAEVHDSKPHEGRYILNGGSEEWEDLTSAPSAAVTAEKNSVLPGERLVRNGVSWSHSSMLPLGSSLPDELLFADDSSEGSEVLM

NS(=O)(=O)c1cccc(-c2ccc3c(NC(=O)C4CC4)n[nH]c3c2)c1
inhibition [1]: 1% and 2% | inhibition [2]: -3% and -1% | inhibition [3]: -7%

CCc1cccc(CC)c1/C=C/c1cncc(C(=O)NC)c1
inhibition [1]: 2% and 1% | inhibition [2]: -6% and -4% | inhibition [3]: -7%

Nc1nc(-c2cccc(Cl)c2)c(-c2ccc3ncccc3n2)s1
inhibition [1]: 3% and -7% | inhibition [2]: -3% and -1% | inhibition [3]: 1%

CCc1nccc2c1nc(-c1nonc1N)n2CC
inhibition [1]: 12% and 13% | inhibition [2]: 0% and -3% | inhibition [3]: -3%

COc1ccc(-c2nn3ncccc3c2-c2ccnc(Nc3cccc(C(F)(F)F)c3)n2)cc1
inhibition [1]: 2% | inhibition [2]: -1% and -3% | inhibition [3]: 6%

COc1ccc2ncn(-c3cc(O[C@H](C)c4ccccc4C(F)(F)F)c(C(N)=O)s3)c2c1
inhibition [1]: 0% and -1% | inhibition [2]: 0% and -2% | inhibition [3]: 3%

N#Cc1cccc(Nc2ncc(-c3ccccc3)o2)c1
inhibition [1]: 1% and -1% | inhibition [2]: -2% and -3% | inhibition [3]: 80%

[O-][S+]1CCN(Cc2ccc(-c3ccc4ncnc(Nc5ccc(OCc6ccccc6)c(Cl)c5)c4c3)o2)CC1
inhibition [1]: 0% and -1% | inhibition [2]: -2% and 0% | inhibition [3]: -5%

COc1ccc(-c2nn3ncccc3c2-c2ccnc(Nc3ccc(F)c(F)c3)n2)cc1
inhibition [1]: 8% and 4% | inhibition [2]: -7% and -1% | inhibition [3]: -4%

c1ccc(-c2n[nH]cc2-c2ccnc(-c3ccc(OCCn4ccnc4)cc3)c2)nc1
inhibition [1]: 0% and -1% | inhibition [2]: -2% and -1% | inhibition [3]: 0%

CCOc1ccc2c(-c3ccnc(Nc4cc(OC)cc(C(F)(F)F)c4)n3)cnn2n1
inhibition [1]: 4% and -1% | inhibition [2]: -1% | inhibition [3]: -5%

Nc1nccc(-c2c(-c3ccc(F)cc3)ncn2CCCN2CCOCC2)n1
inhibition [1]: 6% and 5% | inhibition [2]: -5% and -8% | inhibition [3]: 4%

Fc1ccc(-c2nc3n(c2-c2ccncc2)CCS3)cc1
inhibition [1]: 11% and -1% | inhibition [2]: -2% and 0% | inhibition [3]: 73%

COc1c(C(N)=O)cc(-c2ccc(Cl)cc2)cc1-c1ccc(S(N)(=O)=O)cc1
inhibition [1]: 0% and -2% | inhibition [2]: 1% | inhibition [3]: -6%

COc1cc(N2CCN(C(C)C)CC2)ccc1Nc1nc(Nc2ccc(F)cc2C(N)=O)c2cc[nH]c2n1
inhibition [1]: 3% | inhibition [2]: 0% and -4% | inhibition [3]: 4%

COc1cc2ncnc(Nc3ccc(C)c(O)c3)c2cc1OC
inhibition [1]: 0% and 1% | inhibition [2]: -7% and -4% | inhibition [3]: -10%

COc1cc2ncn(-c3cc(O[C@@H](C)c4ccccc4Cl)c(C(N)=O)s3)c2cc1OC
inhibition [1]: 0% and 1% | inhibition [2]: 1% | inhibition [3]: 69%

N#Cc1c(NC(=O)c2cccc3ccccc23)sc2c1CCCC2
inhibition [1]: 2% and -1% | inhibition [2]: -2% and 0% | inhibition [3]: 78%

Nc1nccc(-c2c(-c3ccc(F)cc3)ncn2C2CCC(O)CC2)n1 (stereo not given)
inhibition [1]: 4% and 10% | inhibition [2]: -2% and -3% | inhibition [3]: 29%

COc1cc(Nc2ncc3c(C)nc(-c4cccc(Oc5ccccc5)c4)n3n2)cc(OC)c1OC
inhibition [1]: 1% and 2% | inhibition [2]: -4% and 0% | inhibition [3]: -6%

Fc1cccc(COc2ccc(Nc3ncnc4sc(-c5cccs5)cc34)cc2Cl)c1
inhibition [1]: -2% and 0% | inhibition [2]: -2% and -3% | inhibition [3]: -10%

NC(=O)Cc1ccccc1Oc1nccc(-c2c(-c3ccc(F)cc3)ncn2C2CCNCC2)n1
inhibition [1]: 2% and 3% | inhibition [2]: -1% | inhibition [3]: 71%

COc1cc(/C=N/Nc2ncnc3[nH]ncc23)ccc1O
inhibition [1]: 6% | inhibition [2]: -10% | inhibition [3]: 6%

COC(=O)Nc1nc2cc(Oc3ccc(NC(=O)Nc4cccc(Br)c4)cc3)ccc2[nH]1
inhibition [1]: 2% and 0% | inhibition [2]: -3% and -1% | inhibition [3]: 4%

NS(=O)(=O)c1ccc(N/N=C2\C(=O)Nc3ccc(C(=O)NCCc4c[nH]cn4)cc32)cc1
inhibition [1]: 7% and 3% | inhibition [2]: -4% and -2% | inhibition [3]: -1%

Nc1nonc1-c1nc2cnccc2n1C1CCCCC1
inhibition [1]: 39% and 36% | inhibition [2]: -7% | inhibition [3]: 1%

Fc1cccc(COc2ccc(Nc3ncnc4sc(-c5ccco5)cc34)cc2Cl)c1
inhibition [1]: 14% and 0% | inhibition [2]: 10% and 6% | inhibition [3]: 78%

COc1cccc(/C=N/Nc2ncnc3c2cnn3-c2cccc(OC)c2)c1
inhibition [1]: 2% and 21% | inhibition [2]: -1% and -4% | inhibition [3]: -6%

CNC(=O)c1sc(-n2cnc3cc(OC)c(OC)cc32)cc1OCc1ccccc1C(F)(F)F
inhibition [1]: 2% and 4% | inhibition [2]: -5% and -3% | inhibition [3]: 4%

COC(=O)c1sc(-n2cnc3cc(OC)c(OC)cc32)cc1OCc1ccccc1C(F)(F)F
inhibition [1]: -1% and 0% | inhibition [2]: -6% and -3% | inhibition [3]: -1%

O=S(=O)(CCOCc1ccc(-c2ccc3ncnc(Nc4ccc(OCc5cccc(F)c5)c(Cl)c4)c3c2)o1)c1ccccc1
inhibition [1]: 0% | inhibition [2]: -2% and -4% | inhibition [3]: 5%

CN1CCC(n2cnc(-c3ccc(F)cc3)c2-c2ccnc(NCCO)n2)CC1
inhibition [1]: 0% and 1% | inhibition [2]: -3% and -4% | inhibition [3]: -2%

NS(=O)(=O)c1cccc(Nc2cc(-c3ccc(F)cc3)n[nH]2)c1
inhibition [1]: 0% and -3% | inhibition [2]: -2% | inhibition [3]: 0%

COc1ccc(-c2coc3ncnc(N)c23)cc1
inhibition [1]: 0% and 1% | inhibition [2]: -3% and -1% | inhibition [3]: -3%

Nc1ncc(-c2cccc(S(N)(=O)=O)c2)c2scc(-c3ccc(F)c(Cl)c3)c12
inhibition [1]: -2% | inhibition [2]: -1% and 0% | inhibition [3]: 3%

COc1cc2c(cc1Nc1nc(Nc3cccc(F)c3C(N)=O)c3cc[nH]c3n1)N(C(=O)CN1CCN(C(C)C)CC1)CC2
inhibition [1]: 4% and 5% | inhibition [2]: -1% and -3% | inhibition [3]: -7%

CS(=O)(=O)CCNCc1ccc(-c2ccc3ncnc(Nc4ccc(OCc5cccc(C(F)(F)F)c5)cc4)c3c2)o1
inhibition [1]: -1% and 0% | inhibition [2]: 0% and -1% | inhibition [3]: -2%

NC(=O)c1cccc(Nc2nccc(Nc3cccc(F)c3)n2)c1
inhibition [1]: 4% and 2% | inhibition [2]: -4% and -3% | inhibition [3]: 50%

CCN1CCC(C(=O)Nc2n[nH]c3nnc(-c4cccc(F)c4F)cc23)CC1
inhibition [1]: 4% and 3% | inhibition [2]: -2% and -4% | inhibition [3]: -7%

COC(=O)Nc1nc2ccc(Sc3ccc(NC(=O)Nc4cc(C(F)(F)F)ccc4F)cc3)cc2[nH]1
inhibition [1]: 3% | inhibition [2]: -3% | inhibition [3]: 21%
